Test: Chemical stability of the amide linkage (hydrolysis in NH4OH)
Assay type: physicochemical
Conditions: 30% NH4OH, 55° C., 24 h, assessed by TLC
Experimental: To assess the chemical stability of the amide linkages in the synthesized compounds, the monomer (6) (T'gly) was subjected to hydrolysis in 30% NH4 OH at 55° C. for 24 h. […] Thus, the amide bond appears to be stable with respect to general base catalyzed hydrolysis. From a practical perspective, this stability to 30% NH4 OH at 55° C. confirms that the amide linkage can withstand the hydrolysis required to remove base protecting groups which are necessary for polymerization of A,C and G homologues.

With `Cc1cn([C@H]2C[C@H](N)[C@@H](C(=O)NCC(=O)O)O2)c(=O)[nH]c1=O` [Compound 6, 1-(3-amino-2,3-dideoxy-β-D-erythro-pentofuranosyl-5-glycine uronate)thymine] the “hydrolysis of the amide linkage” value was “no hydrolysis of the amide linkage was detected”.
